According to the supplement of paper PMC7017272:
± gives the standard deviation of the averaged measurements.

Columns and labels:
Settings in all cases: treatment time: 3 days
[1] = test system: UT-SCC-24A; experiment: drug sensitivity score (DSS); higher = more sensitive
Experimental: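 HNSCC cell lines (500 cells/well, 384-well) were cultured on plastic, on top of (2D) or embedded (3D) in Matrigel or human leiomyoma matrix Myogel (500 ug/mL; Myogel 3D mixed with rat collagen I). Cells were treated for 3 days with 5 ten-fold concentrations of each drug, and viability was read by CellTiter-Glo. Suffixes _1/_2/_3 on drug names are replicates.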

[2] = test system: UT-SCC-106A; experiment: maximal % inhibition of viability relative to DMSO; higher = stronger effect
Experimental: (§1)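 HNSCC cell lines (500 cells/well, 384-well) were cultured on plastic, on top of (2D) or embedded (3D) in Matrigel or human leiomyoma matrix Myogel (500 ug/mL; Myogel 3D mixed with rat collagen I). Cells were treated for 3 days with 5 ten-fold concentrations of each drug, and viability was read by CellTiter-Glo. Viability was normalised to DMSO and benzethonium chloride controls and fitted with the FIMM DSRT pipeline to give IC50 (nM), maximal % inhibition and DSS. Suffixes _1/_2/_3 are replicates. Only inhibition-mode (IC50) fits are kept.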

[3] = test system: UT-SCC-14; experiment: as above
Experimental: as §1

[4] = test system: UT-SCC-24B; experiment: as above
Experimental: as §1

[5] = test system: UT-SCC-28; experiment: as above
Experimental: as §1

[6] = test system: UT-SCC-40; experiment: as above
Experimental: as §1

[7] = test system: UT-SCC-42A; experiment: as above
Experimental: as §1

[8] = test system: UT-SCC-42B; experiment: as above
Experimental: as §1

[9] = test system: UT-SCC-44; experiment: as above
Experimental: as §1

[10] = test system: UT-SCC-73; experiment: as above
Experimental: as §1

[11] = test system: UT-SCC-81; experiment: as above
Experimental: as §1

[12] = test system: UT-SCC-8; experiment: as above
Experimental: as §1

[13] = test system: UT-SCC-106A; experiment: drug sensitivity score (DSS); higher = more sensitive; extreme values may be limits of the assay
In short: (§2)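 HPV-negative HNSCC cell lines were plated at 500 cells/well in 384-well plates, either on plastic, on wells coated with Matrigel or Myogel (500 µg/mL), or embedded in Matrigel or Myogel plus rat collagen I. Each compound was tested at five 10-fold concentrations over 3 days. Viability was measured by CellTiter-Glo 2.0 luminescence, and IC50, maximal inhibition and drug sensitivity score came from percent-inhibition dose–response curves fitted in the FIMM pipeline after normalisation to vehicle (0.1% DMSO) and cell-killing control wells.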

[14] = test system: UT-SCC-14; experiment: as above
In short: as §2

[15] = test system: UT-SCC-42A; experiment: as above
In short: as §2

[16] = test system: UT-SCC-42B; experiment: as above
In short: as §2

[17] = test system: UT-SCC-24A; experiment: relative IC50 (midpoint of the fitted curve; maximal inhibition may be below 50%); higher = less potent
Experimental: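 HNSCC cell lines (500 cells/well, 384-well) were cultured on plastic, on top of (2D) or embedded (3D) in Matrigel or human leiomyoma matrix Myogel (500 ug/mL; Myogel 3D mixed with rat collagen I). Cells were treated for 3 days with 5 ten-fold concentrations of each drug, and viability was read by CellTiter-Glo. Viability was normalised to DMSO (0% inhibition) and 100 uM benzethonium chloride (100% inhibition) controls and fitted with the FIMM DSRT pipeline to give IC50 (nM), maximal % inhibition and the drug sensitivity score (DSS). Suffixes _1/_2/_3 on drug names are replicates.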

[18] = culture condition: embedded in Matrigel
[19] = culture condition: embedded in Myogel + collagen I
[20] = culture condition: on top of Matrigel
[21] = culture condition: on top of Myogel
[22] = culture condition: plastic 2D (no matrix)

relative IC50 [17, 18]: 38.1 nM
relative IC50 [17, 19]: 1010 nM
relative IC50 [17, 20]: 84.8 nM
relative IC50 [17, 21]: 1630 nM
relative IC50 [17, 22]: 83.1 nM
SMILES: C=CC(=O)Nc1cc2c(Nc3ccc(F)c(Cl)c3)ncnc2cc1OCCCN1CCOCC1 [Canertinib]
drug sensitivity score [1, 18]: 27.8 ± 2 DSS
drug sensitivity score [1, 19]: 11 ± 3.6 DSS
drug sensitivity score [1, 20]: 23.5 ± 0.87 DSS
drug sensitivity score [1, 21]: 8.7 ± 0.2 DSS
drug sensitivity score [1, 22]: 23.5 ± 1.5 DSS
maximal % inhibition of viability [2, 18]: 95.6 ± 2%
maximal % inhibition of viability [2, 19]: 95.1 ± 1.2%
maximal % inhibition of viability [2, 20]: 97.3 ± 2.1%
maximal % inhibition of viability [2, 21]: 97.6 ± 1%
maximal % inhibition of viability [2, 22]: 98.83 ± 0.94%
maximal % inhibition of viability [3, 18]: 99.23 ± 0.75%
maximal % inhibition of viability [3, 19]: 98.8 ± 1.1%
maximal % inhibition of viability [3, 20]: 99.7 ± 0.27%
maximal % inhibition of viability [3, 21]: 98.7 ± 1.7%
maximal % inhibition of viability [3, 22]: 98.5 ± 1.4%
maximal % inhibition of viability [4, 18]: 99.67 ± 0.31%
maximal % inhibition of viability [4, 19]: 99.33 ± 0.61%
maximal % inhibition of viability [4, 20]: 99.83 ± 0.29%
maximal % inhibition of viability [4, 21]: 99.7 ± 0.52%
maximal % inhibition of viability [4, 22]: 99.47 ± 0.46%
maximal % inhibition of viability [5, 18]: 82.3 ± 4.4%
maximal % inhibition of viability [5, 19]: 90.8 ± 3.4%
maximal % inhibition of viability [5, 20]: 86.1 ± 2.4%
maximal % inhibition of viability [5, 22]: 80.9 ± 5.2%
maximal % inhibition of viability [6, 18]: 99.5 ± 0.46%
maximal % inhibition of viability [6, 19]: 99.37 ± 0.55%
maximal % inhibition of viability [6, 20]: 99.73 ± 0.38%
maximal % inhibition of viability [6, 21]: 99.63 ± 0.55%
maximal % inhibition of viability [6, 22]: 99.67 ± 0.58%
maximal % inhibition of viability [7, 18]: 96.9 ± 4.2%
maximal % inhibition of viability [7, 19]: 97.4 ± 3.2%
maximal % inhibition of viability [7, 20]: 98.3 ± 1.7%
maximal % inhibition of viability [7, 21]: 98 ± 1.9%
maximal % inhibition of viability [7, 22]: 99.23 ± 0.8%
maximal % inhibition of viability [8, 18]: 99.5 ± 0.36%
maximal % inhibition of viability [8, 20]: 99.87 ± 0.23%
maximal % inhibition of viability [8, 21]: 99.77 ± 0.4%
maximal % inhibition of viability [8, 22]: 99.17 ± 0.74%
maximal % inhibition of viability [9, 18]: 77.5 ± 7%
maximal % inhibition of viability [9, 19]: 92.5 ± 2.4%
maximal % inhibition of viability [9, 20]: 92 ± 3.6%
maximal % inhibition of viability [9, 21]: 95 ± 3.5%
maximal % inhibition of viability [9, 22]: 94.1 ± 3.5%
maximal % inhibition of viability [10, 18]: 99.5 ± 0.46%
maximal % inhibition of viability [10, 19]: 99.57 ± 0.59%
maximal % inhibition of viability [10, 20]: 99.13 ± 0.78%
maximal % inhibition of viability [10, 21]: 98.9 ± 0.98%
maximal % inhibition of viability [10, 22]: 99.5 ± 0.7%
maximal % inhibition of viability [11, 18]: 99.63 ± 0.4%
maximal % inhibition of viability [11, 19]: 99.77 ± 0.32%
maximal % inhibition of viability [11, 20]: 99.27 ± 0.64%
maximal % inhibition of viability [11, 21]: 99.13 ± 0.75%
maximal % inhibition of viability [11, 22]: 99.77 ± 0.4%
maximal % inhibition of viability [12, 18]: 99.83 ± 0.29%
maximal % inhibition of viability [12, 19]: 99 ± 1%
maximal % inhibition of viability [12, 20]: 99.967 ± 0.058%
maximal % inhibition of viability [12, 21]: 99.967 ± 0.058%
maximal % inhibition of viability [12, 22]: 99.37 ± 0.85%
drug sensitivity score [13, 18]: 15.8 ± 1.5 DSS
drug sensitivity score [13, 19]: 5.8 ± 0.1 DSS
drug sensitivity score [13, 20]: 19.2 ± 1.5 DSS
drug sensitivity score [13, 21]: 7.13 ± 0.71 DSS
drug sensitivity score [13, 22]: 21 ± 0.93 DSS
drug sensitivity score [14, 18]: 27 ± 0.3 DSS
drug sensitivity score [14, 19]: 11.2 ± 2.8 DSS
drug sensitivity score [14, 20]: 26.6 ± 0.94 DSS
drug sensitivity score [14, 21]: 16.5 ± 2.1 DSS
drug sensitivity score [14, 22]: 25.6 ± 1.9 DSS
drug sensitivity score [15, 18]: 17.1 ± 0.32 DSS
drug sensitivity score [15, 19]: 7.67 ± 1.3 DSS
drug sensitivity score [15, 20]: 18.4 ± 1.2 DSS
drug sensitivity score [15, 21]: 9.8 ± 0.98 DSS
drug sensitivity score [15, 22]: 17.9 ± 0.98 DSS
drug sensitivity score [16, 18]: 23.7 ± 2.4 DSS
drug sensitivity score [16, 20]: 16.9 ± 2 DSS
drug sensitivity score [16, 21]: 6.83 ± 0.35 DSS
drug sensitivity score [16, 22]: 12 ± 1.2 DSS
